US20240409536A1, “COMPOUNDS AND METHODS FOR MODULATING SPLICING” (REMIX THERAPEUTICS INC., priority 2021, published 2024)

Columns and labels:
MYB mRNA = experiment: Splicing RT-qPCR assay, MYB canonical (CJ) and alternative (AJ) junction mRNA; format: cell-based; conditions: Homo sapiens, A673 or K562 cells, 24 hours; for IC50: decrease in canonical junction mRNA; for AC50: increase in alternative junction mRNA
Method in brief: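 Splice switching was scored by qPCR detection of the new alternative-exon junction (AJ) alongside the canonical junction (CJ). Cell lines A673 or K562 received compound 24 h, top dose 10 uM final.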

HiBiT-tagged HTT protein = experiment: HiBiT protein abundance assay, HTT (K562 HiBiT knock-in cells); format: cell-based, human; conditions: 24 hours
Method in brief: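 K562 cells with endogenous HiBiT knock-in tag, 10-point 3-fold dilutions (top 10 μM final, ≤0.25% DMSO), 24 h at 37 °C. Lytic Nano-Glo HiBiT luminescence, normalized to DMSO and unmodified K562 baselines; IC50 is concentration giving 50% protein abundance from four-parameter fit.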

K562 cells = experiment: Cell Titer Glo 2.0 cell viability assay in K562 cells; conditions: 72 hours

Structure (SMILES)	IC50 (MYB mRNA) [µM]	IC50 (HiBiT-tagged HTT protein) [µM]	AC50 (MYB mRNA) [µM]	Viability (K562 cells)
CNC1CCN(c2ccc(C(=O)Nc3cc(F)c4nc(C)cn4c3)c3nnccc23)C1 (stereo not shown) [Compound 231, N-{8-fluoro-2-methylimidazo[1,2-a]pyridin-6-yl}-5-[3-(methylamino)pyrrolidin-1-yl] cinnoline-8-carboxamide]	< 0.1	1 to 10	< 0.1	B (B represents 100-1000 nM)
CCNC1CCN(c2ccc(C(=O)Nc3cc(F)c4nc(C)cn4c3)c3nc(C)ccc23)CC1 [Compound 228, 5-[4-(ethylamino)piperidin-1-yl]-N-{8-fluoro-2-methylimidazo[1,2-a]pyridin-6-yl}-2-methylquinoline-8-carboxamide]	< 0.1	0.1 to 1	0.1 to 1	A (A represents <100 nM)
Cc1cnc2c(C(=O)Nc3cc(F)c4nc(C)cn4c3)ccc(N3C[C@@H](C)N[C@@H](C)C3)c2n1 [Compound 217, 8-((3R,5S)-3,5-dimethylpiperazin-1-yl)-N-{8-fluoro-2-methylimidazo[1,2-a]pyridin-6-yl}-2-methylquinoxaline-5-carboxamide]	< 0.1	0.1 to 1	< 0.1	B (B represents 100-1000 nM)
CNC1CCN(c2ccc(C(=O)Nc3cc(F)c4nc(C)cn4c3)c3ncc(OC)nc23)C1 (stereo in doubt) [Compound 227, (R)—N-(8-fluoro-2-methylimidazo[1,2-a]pyridin-6-yl)-2-methoxy-8-(3-(methylamino)pyrrolidin-1-yl)quinoxaline-5-carboxamide 2,2,2-trifluoroacetate]	1 to 10	1 to 10	1 to 10	A (A represents <100 nM)
Cc1cn2cc(NC(=O)c3ccc(N4CCC(NC(C)(C)C)C4)c4ccnnc34)cc(F)c2n1 (stereo not shown) [Compound 109]	1 to 10	1 to 10	1 to 10	–
COCCOc1ccc2c(N3CCC(N(C)C)CC3)ccc(C(=O)Nc3cc(F)c4nc(C)cn4c3)c2n1 [Compound 229, 5-[4-(dimethylamino)piperidin-1-yl]-N-{8-fluoro-2-methylimidazo[1,2-a]pyridin-6-yl}-2-(2-methoxyethoxy)quinoline-8-carboxamide]	0.1 to 1	> 10	< 0.1	A (A represents <100 nM)

Further lines, with some results ahead:

IC50 (MYB mRNA) [µM]	IC50 (HiBiT-tagged HTT protein) [µM]	Structure (SMILES)	AC50 (MYB mRNA) [µM]	Viability (K562 cells)
0.1 to 1	1 to 10	COCCOc1ccc2c(N3C[C@@H](C)N[C@@H](C)C3)ccc(C(=O)Nc3cc(F)c4nc(C)cn4c3)c2n1 [Compound 232, 5-[(3R,5S)-3,5-dimethylpiperazin-1-yl]-N-{8-fluoro-2-methylimidazo[1,2-a]pyridin-6-yl}-2-(2-methoxyethoxy)quinoline-8-carboxamide]	0.1 to 1	–
> 10	> 10	Cc1cn2cc(NCc3ccc(N4CCNCC4)c4ccnnc34)cc(F)c2n1 [Compound 230, 8-fluoro-2-methyl-N-{[5-(piperazin-1-yl)cinnolin-8-yl]methyl}imidazo[1,2-a]pyridin-6-amine]	> 10	D (D represents greater than 10 μM in K562 cells)
0.1 to 1	1 to 10	CCNC1CCN(c2ccc(C(=O)Nc3cc(F)c4nc(C)cn4c3)c3nc(OCCOC)ccc23)CC1 [Compound 233, 5-[4-(ethylamino)piperidin-1-yl]-N-{8-fluoro-2-methylimidazo[1,2-a]pyridin-6-yl}-2-(2-methoxyethoxy)quinoline-8-carboxamide]	0.1 to 1	A (A represents <100 nM)
